Series [1] relates to wildtype and LMNA^G609G/G609G MEFs. The experiment in a line: Cell proliferation rate (population doubling level, PDL) of MEFs. It counts as cell-based, mouse. From the text:
In the step of isolating mouse embryo fibroblasts (MEFs), heterozygous (LMNA^G609G/+) mice were set for mating. The date of pregnancy of mice was identified by checking for vaginal plug in the morning following the day of mating. If the vaginal plug was found, the mouse was considered to be pregnant for 0.5 days (E0.5). When the embryos reached E12.5 to E13.5, the pregnant mice were sacrificed, and the embryos were isolated from the mice inside tissue culture hood using sterile utensils. The embryos were placed in phosphate buffered saline (PBS). Their head and liver were removed. A portion of the head was used for genotyping to identify the genotype of each embryo. The body of each embryo was transferred to 1mL of 0.1% Trypsin-EDTA solution in a well of 12-well plate. Using sterile scissors, embryos were cut into small pieces. The 12-well plate was then placed in a 37° C. incubator for 10 minutes. Followed by vigorous pipetting of the embryos in Trypsin-EDTA solution until the embryos wholly dissolved into the solution. The 12-well plate was then placed in 37° C. incubator for 5 minutes. The homogenized solution was then transferred to 9 mL of Gibco's High Glucose Dulbecco's Modified Eagle's Medium (DMEM) supplemented with sodium bicarbonate (3.7 g/L), HEPES (6 g/L), 10% fetal bovine serum (FBS) and penicillin-streptomycin (100 units/mL). The isolated MEFs were considered to be at passage 0 (P0). P3 MEFs were used in experiments as they have optimal cellular responses to stimuli. […]
In the step of determining the cell's proliferation rate and optimal concentration, primary mouse embryonic fibroblasts (MEFs) at passage 3 were counted by using LUNA-II Automated Cell Counter. […] After 4-day and 8-day treatment, the cells were counted again using LUNA-II Automated Cell Counter. The population doubling level (PDL) which reflects the proliferation rate of cells was calculated by the formula: n=3.32×(logUCY−logI)+X, where n=the PDL number, UCY=the cell yield at that time point, I=the initial cell number, and X=the doubling level of the cells used to initiate the subculture being quantitated.

Series [2] has the same test system. The series can be described thus: Senescence-associated beta-galactosidase staining of MEFs. It is filed as cell-based, mouse. The conditions noted are these: vs control cells. Here is the method:
In the step of determining the senescence lever and optimal concentration, the primary mouse embryonic fibroblasts (MEFs) at passage 3 were seeded and cultured in chamber slides. The slides were washed twice with ice-cold phosphate buffered saline (PBS). Using senescence-associated beta-galactosidase staining kit, the cells were fixed for 10 minutes with provided paraformaldehyde and washed twice with PBS. The slides were then incubated with the staining solution at 37° C. overnight. On the following day, the slides were washed twice with PBS and mounted with 40% glycerol in PBS. The stained cells were observed under a light microscope. Senescent cells were stained blue while proliferating cells were unstained. The percentage of senescent cells was quantified by counting the number of stained and unstained cells.

In series [3] the test system is p21, BCL-w, BCL-xL, MCL-1, TRIB3, p-akt in MSCs. The series can be described thus: Western blotting in irradiated and non-irradiated MSCs. The conditions noted are these: 6-hour 10 μM CBD. It is filed as cell-based, human. Here is the method:
FIG. 12a-b illustrates the results of senolytic effect of CBD in mesenchymal stem cells (MSCs) upon irradiation induced senescence.
The relative cell viability was calculated by normalizing each sample to non-irradiated control sample. […] As CBD selectively killed senescent MSCs while keeping proliferating MSCs unharmed, it was discovered to be a novel senolytic. Referring to FIG. 12b, Western blotting was carried to investigate the mechanism behind CBD's senolytic effect. […] While as proliferating and senescent MSCs responded differently in phosphorylated akt level.

Series [4] relates to Caenorhabditis elegans. The series can be described thus: Lifespan analysis of Caenorhabditis elegans. It is filed as in vivo. The conditions noted are these: C. elegans. The method, then: In step of analyzing the lifespan of Caenorhabditis elegans, for chemical treatment in Caenorhabditis elegans, chemical was added to the nematode growth medium (NGM) dishes. The NGM with agarose was autoclaved and then cooled down to below 65° C. The different concentrations of chemical were added to NGM. The NGM was then poured into 60 mm dishes and incubated at room temperature overnight. The solidified NGM dishes were stored at 4° C. Escherichia coli OP50 strain was used as the food source for C. elegans. A single colony of OP50 was incubated in 200 mL of lysogeny broth (LB) medium at 37° C. overnight. The OP50 was then killed by incubation at 65° C. for […]. The dead OP50 was spread throughout the surface of the NGM dishes. The NGM dishes with dead OP50 and CBD were stored at 4° C. for up to 2 weeks. The synchronization of C. elegans was carried out by the bleaching method. 20 L4 larvae were picked to each 60 mm dish with different concentrations of chemical and cultured at 20° C. They were monitored every day, and the number of living, dead and missing C. elegans were recorded. The C. elegans were transferred to fresh Petri dishes every 2 days to separate the target worms from their offspring and to ensure if they had enough food source. 10-20 μM of CBD was identified to be the optimal dosage for extending the lifespan of C. elegans.

Series [5] deals with LMNA^G609G/G609G MEFs. The experiment in a line: Relative nuclear circularity of MEFs. It counts as cell-based, mouse. The conditions noted are these: 12-day CBD treatment, vs control. The method, then:
In the step of determining the relative nuclear circularity, the primary mouse embryonic fibroblasts (MEFs) at passage 3 were seeded and cultured in chamber slides. Nuclei were stained using DAPI or LMNA/C antibodies. The fluorescence images were captured using confocal microscopy. The perimeter and area of the individual nucleus were measured using software CellProfiler. Relative nuclear circularity was calculated using the formula: […]
A value of 1 in relative nuclear circularity indicates a perfect circle. Nuclei with relative nuclear circularity closer to 0 indicate they are more irregularly shaped.

For `C=C(C)[C@@H]1CCC(C)=C[C@H]1c1c(O)cc(CCCCC)cc1O` [CBD, Cannabidiol], the “effect on PDL” value in series [1] (10 μM CBD, 4 and 8 days of treatment) is listed as “increased the PDL to the greatest extent”. Further, the “effect on PDL (toxicity effect)” value in series [1] (50 μM CBD, 4 days) is on record as “decrease in PDL”. The “optimal concentration (PDL)” value in series [1] (MEFs, 4 and 8 days of treatment) worked out at 10 µM. The senescence levels result in series [2] (10 μM CBD, 8 days) is on record as “decrease in senescence levels”. Further, in series [2] (50 μM CBD, 4 days), the “senescence levels (toxicity effect)” value is reported as “increase in senescence levels”. In series [3] (irradiated MSCs), the BCL-w level entry is “downregulated”, the BCL-xL level entry was “downregulated”, the MCL-1 level entry is on record as “downregulated” and the p21 level result is “significantly downregulated”. In addition, the “TRIB3 expression level (downregulated in senescent MSCs)” value in series [3] (irradiated senescent MSCs) is reported as “rescued”. Besides, the p-akt level entry in series [3] (non-irradiated MSCs) is on record as “significantly upregulated”. Further, in series [4] (10 or 20 μM CBD), the maximum lifespan increase is 8-12.5% and the median lifespan increase is recorded as 55-61.5%. The “optimal dosage for extending the lifespan” value in series [4] (CBD in NGM dishes, 20° C.) was in the range of 10 to 20 µM. Besides, the relative nuclear circularity entry in series [5] is “significantly increased the relative nuclear circularity”.
